Reference: patent US9205086B2, “Cancer therapy using a combination of a Hsp90 inhibitory compounds and a EGFR inhibitor” (Synta Pharmaceuticals Corp., priority 2010, dated 2015)
“Also recorded” adds a separate entry of the source. Counter-ions that a name gives are not always drawn.

Key:
[1] = In vivo pharmacokinetic (drug-drug interaction) study in SCID mice, plasma by HPLC; design: species or system mouse; settings: for AUCINF / T½ / Cmax: plasma; for Cmax: female, CB17/Icr-Prkdc^scid/Crl (SCID), mouse
Text: Six to eight week old, female CB17/Icr-Prkdc^scid/Crl (SCID) mice were obtained from Charles River Laboratories (Wilmington, Mass., USA). Animals were housed 4-5/cage in micro-isolators, with a 12 hr/12 hr light/dark cycle, acclimated for at least 1 week prior to use and fed normal laboratory chow ad libitum.

[2] = test system: human NSCLC cell line HCC827; test: SCID mouse xenograft, tumor growth (% T/C); type: in vivo; settings: for % T/C value: day 34
Protocol: FBS was obtained from ATCC and all other reagents were obtained from Invitrogen Corp. (Carlsbad, Calif., USA). Cells that had been cryopreserved in liquid nitrogen were rapidly thawed at 37° C. and transferred to a tissue culture flask containing growth media and then incubated at 37° C. in a 5% CO2 incubator. […] Cultures were passaged by washing with 10 mL of room temperature phosphate buffered saline (PBS) and then disassociating cells by adding 5 mL 1× trypsin-EDTA and incubating at 37° C. until the cells detached from the surface of the flask. To inactivate the trypsin, 5 mL of growth media was added and then the contents of the flask were centrifuged to pellet the cells. The supernatant was aspirated and the cell pellet was resuspended in 10 mL of growth media and the cell number determined using a hemocytometer. Cells were seeded into 175 cm^2 flasks containing 50 mL of growth media and incubated at 37° C. in a 5% CO2 incubator.

[3] = test system: RERF-LC-AI^IVP human lung tumor cells; test: Nude mouse xenograft, tumor growth; type: in vivo; settings: 5 times per week, 15 doses
Protocol: The human squamous non-small cell lung cancer cell line, RERF-LC-AI (RCB0444; S. Kyoizumi, et al., Cancer. Res. 45:3274-3281, 1985), was obtained from the Riken Cell Bank (Tsukuba, Ibaraki, Japan). The cell line was cultured in growth media prepared from 50% Dulbecco's Modified Eagle Medium (high glucose), 50% RPMI Media 1640, 10% fetal bovine serum (FBS), 1% 100× L-glutamine, 1% 100× penicillin-streptomycin, 1% 100× sodium pyruvate and 1% 100×MEM non-essential amino acids. FBS was obtained from American Type Culture Collection (Manassas, Va., USA) and all other reagents were obtained from Invitrogen Corp. (Carlsbad, Calif., USA). Approximately 4-5×10(6) cells that had been cryopreserved in liquid nitrogen were rapidly thawed at 37° C. and transferred to a 175 cm^2 tissue culture flask containing 50 ml of growth media and then incubated at 37° C. in a 5% CO2 incubator.
The growth media was replaced every 2-3 days until the flask became 90% confluent, typically in 5-7 days. […] The supernatant was aspirated and the cell pellet was resuspended in 10 ml of growth media and the cell number determined using a hemocytometer. […]
Studies were conducted on animals between 8 and 12 weeks of age at implantation. […] Tumor volumes (V) were calculated by caliper measurement of the width (W), length (L) and thickness (T) of tumors using the following formula: V=0.5236×(L×W×T). […]

[4] = Body weight change in nude mouse xenograft study; type: in vivo; settings: 200 mg/kg body weight i.p., 5 times per week, 15 doses, tumor-bearing nude mice
Protocol: The Hsp90 inhibitor, 17-allylamino-17-demethoxygeldanamycin (17-AAG), was employed as a positive control (Albany Molecular Research, Albany, N.Y., USA). […] Animals were intraperitoneally (i.p.) injected with this solution at 10 ml per kg body weight on a schedule of 5 days per week (Monday, Tuesday, Wednesday, Thursday and Friday, with no dosing on Saturday and Sunday) for a total of 15 doses.

[5] = target: JAK2 mutant JAK2V617F (Homo sapiens, UniProt O60674, V617F); settings: cited from earlier work
Chain of JAK2 mutant JAK2V617F (O60674 whole entry V617F): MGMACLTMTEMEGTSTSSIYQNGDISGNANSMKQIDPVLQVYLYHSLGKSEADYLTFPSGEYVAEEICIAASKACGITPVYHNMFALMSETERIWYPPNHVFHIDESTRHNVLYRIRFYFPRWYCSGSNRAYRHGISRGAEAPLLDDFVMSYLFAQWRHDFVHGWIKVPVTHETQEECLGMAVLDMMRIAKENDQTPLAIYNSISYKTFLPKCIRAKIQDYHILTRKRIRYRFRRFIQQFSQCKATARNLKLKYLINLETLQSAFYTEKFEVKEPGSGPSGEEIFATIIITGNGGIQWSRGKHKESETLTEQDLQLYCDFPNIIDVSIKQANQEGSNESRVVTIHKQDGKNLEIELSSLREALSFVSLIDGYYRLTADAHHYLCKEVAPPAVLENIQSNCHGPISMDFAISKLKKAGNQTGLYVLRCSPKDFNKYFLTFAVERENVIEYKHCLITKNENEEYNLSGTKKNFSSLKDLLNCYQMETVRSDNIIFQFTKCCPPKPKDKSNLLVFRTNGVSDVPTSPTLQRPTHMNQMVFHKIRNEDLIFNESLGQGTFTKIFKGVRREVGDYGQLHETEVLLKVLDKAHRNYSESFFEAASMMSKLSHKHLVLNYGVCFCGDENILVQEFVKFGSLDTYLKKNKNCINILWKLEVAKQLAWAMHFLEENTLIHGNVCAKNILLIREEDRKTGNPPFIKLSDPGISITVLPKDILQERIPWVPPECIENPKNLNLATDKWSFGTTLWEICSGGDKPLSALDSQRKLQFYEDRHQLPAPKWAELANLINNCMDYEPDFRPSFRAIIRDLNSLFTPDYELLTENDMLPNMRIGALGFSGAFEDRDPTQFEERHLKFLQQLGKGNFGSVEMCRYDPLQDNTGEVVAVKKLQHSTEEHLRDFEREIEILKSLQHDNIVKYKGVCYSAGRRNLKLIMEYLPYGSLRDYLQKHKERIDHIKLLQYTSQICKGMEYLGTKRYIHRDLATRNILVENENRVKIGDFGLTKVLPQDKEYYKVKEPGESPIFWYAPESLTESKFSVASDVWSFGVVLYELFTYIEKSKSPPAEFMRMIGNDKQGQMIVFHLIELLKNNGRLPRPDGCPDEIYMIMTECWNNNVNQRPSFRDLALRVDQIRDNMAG

[6] = 50 mg/kg Compound 1 plus 25 mg/kg erlotinib HCl, SCID mice
[7] = analyte Compound 1, Compound 1 50 mg/kg + erlotinib HCl 25 mg/kg, single dose
[8] = analyte Compound 1, Compound 1 50 mg/kg alone, single i.v. dose
[9] = analyte erlotinib HCl, erlotinib HCl 25 mg/kg + Compound 1 50 mg/kg, single dose
[10] = analyte erlotinib HCl, erlotinib HCl 25 mg/kg alone, single dose

CC(C)c1cc(-c2nnc(O)n2-c2ccc3c(ccn3C)c2)c(O)cc1O [Compound 1, 3-(2,4-DIHYDROXY-5- ISOPROPYL-PHENYL)-4-(1- METHYL-INDOL-5-YL)-5- HYDROXY-[1,2,4]TRIAZOLE]
effect of erlotinib HCl on plasma half-life, Cmax and total plasma exposure (AUCinf) of Compound 1 [1, 6]: no significant effect; also recorded: did not affect
AUCINF [1, 7]: 36.0 μMXHR
T½ [1, 7]: 4.5 h
AUCINF [1, 8]: 38.5 μMXHR
T½ [1, 8]: 4.7 h
Cmax ([1]; iv, 50 mg/kg, analyte Compound 1, Compound 1 50 mg/kg + erlotinib HCl 25 mg/kg, single dose): 93.4 µM
Cmax ([1]; iv, 50 mg/kg, analyte Compound 1, Compound 1 50 mg/kg alone, single i.v. dose): 118 µM
HCC827 tumor growth in SCID mice ([2]; Compound 1 50 mg/kg i.v. once per week, 3 doses, 50 mg/kg): moderately inhibited HCC827 tumor growth
% T/C value ([2]; Compound 1 50 mg/kg i.v. once per week): 15%

C=CCNC1=C2C[C@@H](C)C[C@H](OC)[C@H](O)[C@@H](C)/C=C(\C)[C@H](OC(N)=O)[C@@H](OC)/C=C\C=C(/C)C(=O)NC(=CC1=O)C2=O [Compound 17-AAG, 17-allylamino-17-demethoxygeldanamycin, reference compound]
growth rate of RERF-LC-AI^IVP human lung tumor cells in nude mice ([3]; 75 mg/kg body weight i.p.): inhibited tumor growth; also recorded: decreased the growth rate

CCc1cc(-c2nnc(S)n2-c2ccc(OC)c3c2ccn3C(C)C)c(O)cc1O [Compound 26, 3-(2,4-DIHYDROXY-5-ETHYL- PHENYL)-4-(1-ISOPROPYL-7- METHOXY-INDOL-4-YL)-5- MERCAPTO[1,2,4]TRIAZOLE]
overt toxicity (effect on body weights) [4]: not associated with overt toxicity; also recorded: not overtly toxic
growth rate of RERF-LC-AI^IVP human lung tumor cells in nude mice ([3]; 200 mg/kg body weight i.p.): inhibited tumor growth; also recorded: decreased the growth rate

C#Cc1cccc(Nc2ncnc3cc(OCCOC)c(OCCOC)cc23)c1 [erlotinib HCl]
effect of Compound 1 on plasma half-life, Cmax and total plasma exposure (AUCinf) of erlotinib HCl [1, 6]: little or no effect
effect of Compound 1 on plasma half-life, Cmax and total plasma exposure (AUCinf) of erlotinib HCl ([1]; 50 mg/kg Compound 1 plus 25 mg/kg erlotinib HCl, SCID mice, listed as erlotinib): little effect
AUCINF [1, 9]: 39.0 μMXHR
T½ [1, 9]: 2.8 h
AUCINF [1, 10]: 28.1 μMXHR
T½ [1, 10]: 1.7 h
increase in total plasma exposure of erlotinib HCl ([1]; combination with Compound 1 versus erlotinib HCl alone): 39%
Cmax ([1]; intravenous, 25 mg/kg, analyte erlotinib HCl, erlotinib HCl 25 mg/kg + Compound 1 50 mg/kg, single dose): 4.94 µM
Cmax ([1]; intravenous, 25 mg/kg, analyte erlotinib HCl, erlotinib HCl 25 mg/kg alone, single dose): 4.11 µM
% T/C value ([2]; erlotinib HCl 25 mg/kg p.o. once per week): 23%
inhibition of JAK2V617F [5]: potently inhibits
